# Target: T1, PAPD5 (Homo sapiens, UniProt Q8NDF8)
# T1 construct: made in house
# Experiment: High-throughput luminescence (KinaseGlo) RNA polyadenylation assay, ATP utilization by recombinant PAPD5
# Format: biochemical
# Details: Table 4 (entries of Table 5), ratio of luminescence with inhibitor to DMSO; for Fold-change determined at compound concentration 33 μM: 33 μM compound; for Fold-change determined at compound concentration 100 μM: 100 μM compound, higher = higher inhibition
# In short: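 Values are ratios of inhibitor to DMSO luminescence, so larger numbers mean less ATP consumed. Screening was run in duplicate with a 2 h room-temperature reaction of recombinant PAPD5, ATP and oligo RNA substrate plus compound. Residual ATP was detected after a 10 min KinaseGlo step.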
# T1 sequence (Q8NDF8 68-698 isoform Q8NDF8-5): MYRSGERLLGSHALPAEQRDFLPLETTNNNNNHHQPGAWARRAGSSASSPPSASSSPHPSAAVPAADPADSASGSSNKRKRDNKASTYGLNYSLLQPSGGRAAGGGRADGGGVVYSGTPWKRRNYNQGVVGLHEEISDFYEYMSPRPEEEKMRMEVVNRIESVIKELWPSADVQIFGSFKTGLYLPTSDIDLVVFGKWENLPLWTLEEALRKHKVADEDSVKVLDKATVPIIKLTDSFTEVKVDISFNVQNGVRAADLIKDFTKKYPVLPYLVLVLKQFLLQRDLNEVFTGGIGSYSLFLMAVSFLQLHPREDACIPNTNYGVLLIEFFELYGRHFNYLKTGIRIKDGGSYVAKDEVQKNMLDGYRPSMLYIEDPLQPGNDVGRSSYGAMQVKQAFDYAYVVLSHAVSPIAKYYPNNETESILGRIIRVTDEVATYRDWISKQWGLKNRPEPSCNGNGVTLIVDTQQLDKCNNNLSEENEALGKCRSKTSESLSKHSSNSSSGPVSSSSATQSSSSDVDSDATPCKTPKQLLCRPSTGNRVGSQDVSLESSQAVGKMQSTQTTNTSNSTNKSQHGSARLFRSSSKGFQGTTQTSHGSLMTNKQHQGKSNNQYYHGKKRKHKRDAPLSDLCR
SMILES,Fold-change determined at compound concentration 33 μM,Fold-change determined at compound concentration 100 μM,Fold-change determined at compound concentration 10 μM (10 μM compound)
"Cc1ccc(C(=O)Nc2c(-c3ccccc3)nc3ccccn23)cc1C [Entry 189, 3,4-dimethyl-N-(2-phenylimidazo[1,2-a]pyridin-3-yl)benzamide]",1.206,1.311,–
"Cc1ccc(C(=O)Nc2c(-c3ccccc3)nc3ccccn23)cc1 [Entry 190, 4-methyl-N-(2-phenylimidazo[1,2-a]pyridin-3-yl)benzamide]",1.309,1.482,1.214
"O=C(Nc1c(-c2ccccc2)nc2ccccn12)c1ccc(Br)cc1 [Entry 191, 4-bromo-N-(2-phenylimidazo[1,2-a]pyridin-3-yl)benzamide]",1.225,1.296,–
"O=C(O)c1ccc(Nc2c(-c3cc(Br)ccc3O)nc3cnccn23)cc1 [Entry 192, 4-{[2-(5-bromo-2-hydroxyphenyl)imidazo[1,2-a]pyrazin-3-yl]amino}benzoic acid]",1.106,1.419,–
"O=C(O)c1cccc(Nc2c(-c3cc(Br)ccc3O)nc3cnccn23)c1 [Entry 193, 3-{[2-(5-bromo-2-hydroxyphenyl)imidazo[1,2-a]pyrazin-3-yl]amino}benzoic acid]",1.134,1.446,–
"COc1ccc(C2CC(=O)N3CN(C4CCCCC4)CSC3=C2C#N)cc1 (stereo not drawn) [Entry 194, 3-cyclohexyl-8-(4-methoxyphenyl)-6-oxo-3,4,7,8-tetrahydro-2H,6H-pyrido[2,1-b][1,3,5]thiadiazine-9-carbonitrile]",1.323,1.613,–
"CC(C)c1ccc(C2CC(=O)N3CN(C4CCCCC4)CSC3=C2C#N)cc1 (stereo not drawn) [Entry 195, 3-cyclohexyl-6-oxo-8-(4-propan-2-ylphenyl)-2,4,7,8-tetrahydropyrido[2,1-b][1,3,5]thiadiazine-9-carbonitrile]",1.072,1.228,–
"N#CC1=C2SCN(C3CCCCC3)CN2C(=O)CC1c1ccc(Br)cc1 (stereo not drawn) [Entry 196, 8-(4-bromophenyl)-3-cyclohexyl-6-oxo-3,4,7,8-tetrahydro-2H,6H-pyrido[2,1-b][1,3,5]thiadiazine-9-carbonitrile]",1.09,1.326,–
"COc1cc(C2CC(=O)Nc3c2sc(C(=O)O)c3-c2cccc(F)c2)ccc1OCC(N)=O (stereo not drawn) [Entry 197, 7-[4-(2-amino-2-oxoethoxy)-3-methoxyphenyl]-3-(3-fluorophenyl)-5-oxo-4,5,6,7-tetrahydrothieno[3,2-b]pyridine-2-carboxylic acid]",1.142,1.412,–
"CCOc1cc(C2CC(=O)Nc3c2sc(C(=O)O)c3-c2cccc(F)c2)ccc1OCC(N)=O (stereo not drawn) [Entry 198, 7-[4-(2-amino-2-oxoethoxy)-3-ethoxyphenyl]-3-(3-fluorophenyl)-5-oxo-4,5,6,7-tetrahydrothieno[3,2-b]pyridine-2-carboxylic acid]",1.084,1.264,–
"COC(=O)c1c(NC(=O)c2ccccc2C(=O)O)sc2c1CCCC2 [Entry 199, 2-({[3-(methoxycarbonyl)-4,5,6,7-tetrahydro-1-benzothien-2-yl]amino}carbonyl)benzoic acid]",1.199,1.607,–
"CCOC(=O)c1c(NC(=O)CSc2n[nH]c3nc(=O)cc(C)n23)sc2c1CCCCC2 [Entry 200, ethyl 2-[[2-[(5-methyl-7-oxo-1H-[1,2,4]triazolo[4,3-a]pyrimidin-3-yl)sulfanyl]acetyl]amino]-5,6,7,8-tetrahydro-4H-cyclohepta[b]thiophene-3-carboxylate]",1.038,1.414,–
"O=C(NC1CC1)c1ccc(Cn2c(SCc3ccccc3Cl)nc3ccncc32)cc1 [Entry 202, 4-({2-[(2-chlorobenzyl)thio]-3H-imidazo[4,5-c]pyridin-3-yl]methyl)-N-cyclopropylbenzamide]",1.164,1.361,–
"O=C(NCCN1CCCC1)c1ccc(Cn2c(SCc3ccc(Cl)cc3)nc3ccncc32)cc1 [Entry 203, 4-({2-[(4-chlorobenzyl)thio]-3H-imidazo[4,5-c]pyridin-3-yl}methyl)-N-(2-pyrrolidin-1-ylethyl)benzamide]",1.106,1.31,–
"Cc1nn(-c2ccc(Cl)cc2)c2sc(C(=O)O)cc12 [Entry 204, 1-(4-Chloro-phenyl)-3-methyl-1H-thieno[2,3-c]pyrazole-5-carboxylic acid]",1.073,1.229,–
"Cn1nc(-c2ccc(Cl)cc2)c2cc(C(=O)O)sc21 [Entry 205, 3-(4-chlorophenyl)-1-methylthieno[2,3-c]pyrazole-5-carboxylic acid]",1.232,2.055,–

SMILES,Fold-change determined at compound concentration 33 μM,Fold-change determined at compound concentration 100 μM,Fold-change determined at compound concentration 10 μM (10 μM compound)
"CCS(=O)(=O)c1nc2ccc(NS(=O)(=O)c3ccc(F)c(F)c3)cc2s1 [Entry 206, N-(2-(ethylsulfonyl)benzo[d]thiazol-6-yl)-3,4-difluorobenzenesulfonamide]",1.08,1.225,–
"COc1ccc(OC)c2sc(N(CCCN(C)C)C(=O)c3ccco3)nc12 [Entry 207, N-(4,7-dimethoxy-1,3-benzothiazol-2-yl)-N-[3-(dimethylamino)propyl]furan-2-carboxamide]",1.118,1.2,–
"Cc1ccc(-c2n[nH]c(=O)c3c2CCCC3)cc1S(=O)(=O)Nc1ccc(S(N)(=O)=O)cc1 [Entry 208, N-[4-(aminosulfonyl)phenyl]-2-methyl-5-(4-oxo-3,4,5,6,7,8-hexahydrophthalazin-1-yl)benzenesulfonamide]",1.211,1.492,–
"O=C(Cn1nc(Cc2ccncc2)c2ccccc2c1=O)N1CC=C(c2ccccc2)CC1 [Entry 209, 2-[2-oxo-2-(4-phenyl-3,6-dihydropyridin-1(2H)-yl)ethyl]-4-(pyridin-4-ylmethyl)phthalazin-1(2H)-one]",1.093,1.274,–
"O=C(O)c1csc2nc[nH]c(=O)c12 [Entry 210, 4-Oxo-3,4-dihydrothieno[2,3-d]pyrimidine-5-carboxylic acid]",1.136,1.311,–
"CCOC(=O)Cn1cnc2sc3c(c2c1=O)CCCC3 [Entry 211, Ethyl (4-oxo-5,6,7,8-tetrahydro[1]benzothieno[2,3-d]pyrimidin-3(4H)-yl)acetate]",1.065,1.217,–
"O=C1c2cnccc2CN1c1cc(F)ccc1F [Entry 212, 2-(2,5-difluorophenyl)-1H-pyrrolo[3,4-c]pyridin-3-one]",1.077,1.799,–
"Cc1ccc2c(c1)n(Cc1ccc(Cl)cc1)c(=O)c1nc(C(=O)O)nn12 [Entry 213, 5-(4-chlorobenzyl)-7-methyl-4-oxo-4,5-dihydro[1,2,4]triazolo[1,5-a]quinoxaline-2-carboxylic acid]",1.199,1.579,–
"Cc1nn(CC(=O)O)c(=O)c2cc3cc(F)ccc3n12 [Entry 214, 2-(8-fluoro-4-methyl-1-oxo-[1,2,4]triazino[4,5-a]indol-2-yl)acetic acid]",1.118,1.213,–
"O=C(O)c1cccn2c(=O)c3c4c(sc3nc12)CCCC4 [Entry 215, 12-oxo-1,2,3,4-tetrahydro-12H-[1]benzothieno[2,3-d]pyrido[1,2-a]pyrimidine-7-carboxylic acid]",1.074,2.037,–
"Cc1ccc(S(=O)(=O)NCc2ccc(-c3nn4cnnc4s3)cc2)cc1 [Entry 216, 4-methyl-N-[[4-([1,2,4]triazolo[3,4-b][1,3,4]thiadiazol-6-yl)phenyl]methyl]benzenesulfonamide]",1.103,1.239,–
"CCOc1ccc(-c2noc(Cn3cnc4c(cnn4-c4ccccc4)c3=O)n2)cc1OC [Entry 217, 5-[[3-(4-ethoxy-3-methoxyphenyl)-1,2,4-oxadiazol-5-yl]methyl]-1-phenylpyrazolo[3,4-d]pyrimidin-4-one]",1.114,1.245,–
"COc1cccc(NC(=O)c2ccc3c(=O)n4nc(Nc5ccccc5OC)sc4nc3c2)c1 [Entry 218, 2-(2-methoxyanilino)-N-(3-methoxyphenyl)-5-oxo-[1,3,4]thiadiazolo[2,3-b]quinazoline-8-carboxamide]",1.096,1.304,–
"CC(C)Cn1c(=O)c(-c2ccc(C(=O)Nc3ccc4c(c3)OCCO4)cc2)nc2ccccc21 [Entry 219, N-(2,3-dihydro-1,4-benzodioxin-6-yl)-4-[4-(2-methylpropyl)-3-oxoquinoxalin-2-yl]benzamide]",1.086,1.339,–
"Cc1ccc2[nH]c(=O)c3cc(C(=O)O)sc3c2c1 [Entry 220, 8-methyl-4-oxo-5H-thieno[3,2-c]quinoline-2-carboxylic acid]",1.068,1.277,–
